# According to US8278441B2, “BACE inhibitors” (Eli Lilly and Company, priority 2009, dated 2012):
# Structures can show the parent of a compound that is named as a salt. Where two headings read alike, the source gives them in different places.
# What was measured:
# human BACE1(1-460):Fc = biological target: T1, human BACE1(1-460):Fc (Homo sapiens, UniProt P56817); experiment: BACE1 FRET assay; assay type: biochemical; settings: purified recombinant human BACE1(1-460):Fc, FRET substrate, pH 4.6
# T1 construct: made in house; host or cells: HEK293 cells, transient transfection; purified from conditioned media by Protein A chromatography
# [1] = biological target: T2, native endogenous human BACE1 in HEK293/APP751sw cells (Homo sapiens, UniProt P56817); experiment: HEK293Swe whole cell assay (Abeta ELISA); assay type: cell-based
# T2 construct: endogenous in cells; host or cells: HEK293p (ATCC CRL-1573) stably expressing APP751sw
# [2] = biological target: T3, native, endogenous murine BACE1 in PDAPP primary cortical neurons (Mus musculus, UniProt P56818); experiment: PDAPP primary neuronal assay (Abeta ELISA); assay type: cell-based; settings: primary cortical neurons from PDAPP embryos, 24 h
# T3 construct: endogenous in cells; host or cells: primary cortical neurons from Embryonic Day 16 PDAPP transgenic mouse embryos
# beta-secretase = experiment: In vivo inhibition of beta-secretase in PDAPP mice; settings: 3 hours; for Abeta 1-x peptide level reduction in brain cortex / C99 level reduction in brain cortex / sAPPb level reduction in brain cortex: young female PDAPP mice, vs vehicle-treated mice
# Source text: Several animal models, including mouse, guinea pig, dog, and monkey, may be used to screen for inhibition of beta-secretase activity in vivo following compound treatment. Animals used in this invention can be wild type, transgenic, or gene knockout animals. For example, the PDAPP mouse model, prepared as described in Games et al., Nature 373, 523-527 (1995), and other non-transgenic or gene knockout animals are useful to analyze in vivo inhibition of Abeta and sAPPbeta production in the presence of inhibitory compounds. Generally, 2 to 12 month old PDAPP mice, gene knockout mice or non-transgenic animals are administered compound formulated in vehicles, such as corn oil, cyclodextran, phosphate buffers, PHARMASOLVE®, or other suitable vehicles. One to twenty-four hours following the administration of compound, animals are sacrificed, and brains as well as cerebrospinal fluid and plasma are removed for analysis of Abetas, C99, and sAPP fragments. (See Dovey, et al., Journal of Neurochemistry, 76, 173-181 (2001); and Johnson-Wood, et al., Proc. Natl. Acad. Sci. USA, 94, 1550-1555 (1997)).
# For standard in vivo pharmacology studies, animals are dosed with various concentrations of compound and compared to a vehicle-treated control group dosed at the same time. For some time course studies, brain tissue, plasma, or cerebrospinal fluid is obtained from selected animals, beginning at time 0 to establish a baseline. Compound is administered to other groups and sacrificed at various times after dosing. Brain tissue, plasma, or cerebrospinal fluid is obtained from selected animals and analyzed for the presence of APP cleavage products, including Abeta peptides, sAPPbeta, and other APP fragments, for example, by specific sandwich ELISA assays. At the end of the test period, animals are sacrificed and brain tissues, plasma, or cerebrospinal fluid are analyzed for the presence of Abeta peptides, C99, and sAPPbeta, as appropriate. Brain tissues of APP transgenic animals are also analyzed for the amount of beta-amyloid plaques following compound treatment.
# [3] = Abeta 1-40 in conditioned media, read-out: HEK 293 Swe A-beta (1-40) ELISA IC50
# [4] = Abeta 1-42 in conditioned media, read-out: HEK 293 Swe A-beta (1-42) ELISA IC50
# [5] = Abeta 1-40, read-out: PDAPP Neuron A-beta (1-40) ELISA IC50
# [6] = Abeta 1-42, read-out: PDAPP Neuron A-beta (1-42) ELISA IC50
# T3 sequence (P56818 46-501): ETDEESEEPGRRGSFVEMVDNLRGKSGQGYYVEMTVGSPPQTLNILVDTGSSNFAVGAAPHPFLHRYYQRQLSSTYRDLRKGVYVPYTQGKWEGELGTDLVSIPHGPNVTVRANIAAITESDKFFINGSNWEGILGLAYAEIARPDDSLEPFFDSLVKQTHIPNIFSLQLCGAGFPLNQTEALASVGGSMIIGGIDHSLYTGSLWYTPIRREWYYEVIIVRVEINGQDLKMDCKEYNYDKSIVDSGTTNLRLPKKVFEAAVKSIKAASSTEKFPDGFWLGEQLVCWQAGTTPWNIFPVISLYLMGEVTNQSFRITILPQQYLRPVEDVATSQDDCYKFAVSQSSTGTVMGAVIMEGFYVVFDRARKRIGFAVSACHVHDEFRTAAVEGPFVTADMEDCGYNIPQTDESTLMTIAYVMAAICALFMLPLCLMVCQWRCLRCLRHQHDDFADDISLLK
# T1 sequence (P56817 22-460): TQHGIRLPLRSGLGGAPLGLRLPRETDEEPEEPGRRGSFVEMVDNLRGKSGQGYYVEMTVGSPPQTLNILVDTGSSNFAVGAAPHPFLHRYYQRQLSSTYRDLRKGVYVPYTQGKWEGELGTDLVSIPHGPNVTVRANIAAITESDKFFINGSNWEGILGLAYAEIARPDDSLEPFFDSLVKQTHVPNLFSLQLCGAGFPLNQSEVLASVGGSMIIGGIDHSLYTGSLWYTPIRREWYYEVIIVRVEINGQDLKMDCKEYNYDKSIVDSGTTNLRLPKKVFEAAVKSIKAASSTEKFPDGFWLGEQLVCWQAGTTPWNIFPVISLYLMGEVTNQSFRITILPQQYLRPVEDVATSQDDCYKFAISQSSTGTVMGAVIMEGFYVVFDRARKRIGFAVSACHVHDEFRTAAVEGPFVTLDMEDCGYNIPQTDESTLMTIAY
# T2 sequence (P56817 46-501): as the sequence (P56818 46-501) above, with S6P, I162V, I165L, T180S, A182V, V340I, A393L, H443Q counted along it
IC50 (human BACE1(1-460):Fc) [nM],"IC50 [1, 3] [nM]","IC50 [1, 4] [nM]","IC50 [2, 5] [nM]","IC50 [2, 6] [nM]",SMILES,"CSF Abeta 1-42 level reduction (beta-secretase; CSF, 10 mg/kg oral)","CSF Abeta 1-x level reduction (beta-secretase; CSF, 10 mg/kg oral)","CSF sAPPalpha levels (beta-secretase; CSF, 10 mg/kg oral)","CSF sAPPbeta level reduction (beta-secretase; CSF, 10 mg/kg oral) [%]",Abeta 1-x peptide level reduction in brain cortex (beta-secretase; 10 mg/kg oral),C99 level reduction in brain cortex (beta-secretase; 10 mg/kg oral) [%],sAPPb level reduction in brain cortex (beta-secretase; 10 mg/kg oral) [%],Abeta 1-x peptide level reduction in brain cortex (beta-secretase; 10 mg/kg subcutaneous),C99 level reduction in brain cortex (beta-secretase; 10 mg/kg subcutaneous) [%],sAPPb level reduction in brain cortex (beta-secretase; 10 mg/kg subcutaneous) [%]
346,670,173,436,352,"NC1=N[C@@]2(c3cccc(-c4cncnc4)c3)C[C@H](O)C[C@H]2CS1 (racemic) [Example 32, Racemic (4aRS,6RS,7aSR)-2-Amino-7a-(3-(pyrimidin-5-yl)phenyl)-4,4a,5,6,7,7a-hexahydrocyclopenta[d][1,3]thiazin-6-ol dihydrochloride]",–,–,–,–,–,–,–,–,–,–
–,–,–,–,–,"Cl.NC1=N[C@@]2(c3cc(NC(=O)c4ccc(F)cn4)ccc3F)COC[C@H]2CS1 [Example 1, N-(3-((4aS,7aS)-2-Amino-4a,5,7,7a-tetrahydro-4H-furo[3,4-d][1,3]thiazin-7a-yl)-4-fluorophenyl)-5-fluoropicolinamide hydrochloride]",approximately 62%,approximately 62%,unchanged,22,approximately 54%,~34,~42,approximately 64%,~60,~44
179,78,89.6,32.8,41.3,"NC1=N[C@@]2(c3cc(NC(=O)c4nccs4)ccc3F)CCOC[C@H]2CS1 [Example 8, N-(3-((8aS)-2-Amino-4,4a,5,7,8,8a-hexahydropyrano[4,3-d][1,3]thiazin-8a-yl)-4-fluorophenyl)thiazole-2-carboxamide hydrochloride]",–,–,–,–,–,–,–,–,–,–
731,1360,1150,734,659,"NC1=N[C@@]2(c3cccc(-c4cncnc4)c3)CCCC[C@H]2CS1 [Example 25, (8aS)-8a-(3-(Pyrimidin-5-yl)phenyl)-4a,5,6,7,8,8a-hexahydro-4H-benzo[d][1,3]thiazin-2-amine dihydrochloride]",–,–,–,–,–,–,–,–,–,–
